# How the values were obtained:
# [1] = biological target: T1, Thiosulfate sulfurtransferase (Homo sapiens, UniProt Q16762); assay type: ADME;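 note: native rhodanese of unspecified species, enzyme activity read after 45 min by spectrophotometric detection of Fe(SCN)3 colour, IC50 reflects activity reduction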
# T1 sequence (Q16762 whole entry): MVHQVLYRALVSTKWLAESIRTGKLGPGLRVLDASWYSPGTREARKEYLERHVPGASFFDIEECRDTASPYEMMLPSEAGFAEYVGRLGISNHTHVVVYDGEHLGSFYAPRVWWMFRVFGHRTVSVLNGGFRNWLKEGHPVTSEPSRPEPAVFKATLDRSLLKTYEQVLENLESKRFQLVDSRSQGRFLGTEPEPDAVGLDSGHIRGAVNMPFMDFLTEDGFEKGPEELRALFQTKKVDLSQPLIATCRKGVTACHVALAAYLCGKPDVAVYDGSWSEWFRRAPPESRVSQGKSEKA
# Description: Inhibition of native rhodanese (unknown origin) assessed as reduction in rhodanese enzyme activity after 45 mins by Fe(SCN)3 dye based spectrometric analysis
# E. coli GroEL/ES [2] = biological target: T2, E. coli GroEL/ES (Escherichia coli, UniProt P0A6F5)
# Description: Inhibition of Escherichia coli GroEL expressed in Escherichia coli DH5alpha/Escherichia coli GroES expressed in Escherichia coli BL21 (DE3) assessed as reduction in GroEL/GroES-mediated denatured rhodanese refolding by measuring rhodanese enzyme activity after 45 mins by Fe(SCN)3 dye based spectrometric analysis
# HSP60/HSP10 = HSP60/HSP10 (Homo sapiens, UniProt P10809);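 note: His-tagged human HSP60 with HSP10 refolding denatured MDH, read as MDH activity on mesoxalate by malachite green spectrometry, inhibition of refolding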
# Description: Inhibition of human N-terminal octa-His-tagged HSP60 expressed in Escherichia coli Rosetta(DE3) pLysS/human HSP10 expressed in Escherichia coli Rosetta(DE3) assessed as reduction in HSP60/HSP10-mediated denatured MDH refolding by measuring MDH enzyme activity using sodium mesoxalate as substrate after 40 to 60 mins by malachite green dye based spectrometric analysis
# E. coli GroEL/ES [3] = biological target: T2, E. coli GroEL/ES; remark: listed apart in the source
# Description: Inhibition of Escherichia coli GroEL expressed in Escherichia coliDH5alpha/Escherichia coli GroES expressed in Escherichia coli BL21 (DE3) assessed as reduction in GroEL/GroES-mediated denatured soluble pig heart MDH refolding by measuring MDH enzyme activity using sodium mesoxalate as substrate after 20 to 40 mins by malachite green dye based spectrometric analysis
# Chaperonin GroEL = Chaperonin GroEL (Escherichia coli (strain K12), UniProt P0A6F5);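 note: inhibition of GroEL ATPase activity with ATP as substrate, 60 min incubation, spectrometric read-out, recombinant enzyme produced in Escherichia coli DH5alpha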
# Chain of Chaperonin GroEL (P0A6F5 whole entry): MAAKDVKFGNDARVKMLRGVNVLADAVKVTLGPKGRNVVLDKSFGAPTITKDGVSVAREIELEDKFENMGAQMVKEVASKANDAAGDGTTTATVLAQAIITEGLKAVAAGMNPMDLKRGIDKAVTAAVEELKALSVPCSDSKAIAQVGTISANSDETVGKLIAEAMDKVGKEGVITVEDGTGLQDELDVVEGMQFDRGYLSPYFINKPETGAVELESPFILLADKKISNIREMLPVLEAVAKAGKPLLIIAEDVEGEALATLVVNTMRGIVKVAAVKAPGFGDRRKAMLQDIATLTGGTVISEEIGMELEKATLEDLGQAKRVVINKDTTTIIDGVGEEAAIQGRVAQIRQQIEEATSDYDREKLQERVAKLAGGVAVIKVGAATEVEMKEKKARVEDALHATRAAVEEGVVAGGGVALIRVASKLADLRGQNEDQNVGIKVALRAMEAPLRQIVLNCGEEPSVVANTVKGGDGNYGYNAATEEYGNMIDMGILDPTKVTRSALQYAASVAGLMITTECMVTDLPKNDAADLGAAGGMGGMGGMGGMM
# Description: Inhibition of ATPase activity of Escherichia coli GroEL expressed in Escherichia coliDH5alpha incubated for 60 mins using ATP by spectrometric analysis
# T2 sequence (P0A6F5 whole entry, looked up): as the sequence (P0A6F5 whole entry) above
# Chain of HSP60/HSP10 (P10809 whole entry): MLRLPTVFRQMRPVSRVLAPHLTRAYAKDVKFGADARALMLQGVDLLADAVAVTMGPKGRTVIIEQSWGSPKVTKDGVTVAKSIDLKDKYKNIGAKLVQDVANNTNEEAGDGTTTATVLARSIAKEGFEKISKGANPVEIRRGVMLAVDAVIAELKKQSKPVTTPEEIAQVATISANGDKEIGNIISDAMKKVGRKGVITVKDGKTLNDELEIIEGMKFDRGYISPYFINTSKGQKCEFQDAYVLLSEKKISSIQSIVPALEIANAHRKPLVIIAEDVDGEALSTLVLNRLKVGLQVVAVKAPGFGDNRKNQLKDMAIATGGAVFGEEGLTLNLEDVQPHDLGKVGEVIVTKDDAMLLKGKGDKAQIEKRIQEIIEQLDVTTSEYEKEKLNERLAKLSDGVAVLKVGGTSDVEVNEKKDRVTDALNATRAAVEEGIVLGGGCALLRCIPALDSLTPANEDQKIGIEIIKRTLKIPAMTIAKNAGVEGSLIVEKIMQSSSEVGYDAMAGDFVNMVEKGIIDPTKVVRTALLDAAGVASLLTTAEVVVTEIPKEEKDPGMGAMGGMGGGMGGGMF
# Chain of HSP60/HSP10 (P61604 whole entry, further chain): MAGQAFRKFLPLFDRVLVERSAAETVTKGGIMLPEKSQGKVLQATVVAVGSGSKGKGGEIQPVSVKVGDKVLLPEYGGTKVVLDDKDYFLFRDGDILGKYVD
Compound,IC50 [1] [µM],IC50 (E. coli GroEL/ES [2]) [µM],IC50 (HSP60/HSP10) [µM],IC50 (E. coli GroEL/ES [3]) [µM],IC50 (Chaperonin GroEL) [µM]
COc1ccc(-c2ccc3cc(C(=O)O)ccc3c2)cc1C12CC3CC(CC(C3)C1)C2,> 100,5.1,2.3,2.1,> 250
CCCCCCCCCCCCCCCC(=O)OC[C@H](O)[C@H]1OC(=O)C(O)=C1O [ASCORBYL PALMITATE],53,8.5,3.1,3.5,177
CC[n+]1c(-c2ccccc2)c2cc(N)ccc2c2ccc(N)cc21 [HOMIDIUM BROMIDE],0.83,2.4,> 100,> 100,> 250
CN(C)c1ccc2nc3ccc(=[N+](C)C)cc-3sc2c1 [METHYLENE BLUE],6.1,,> 100,,
CCCCN1CCC(COC(=O)c2cc(Cl)c(N)c3c2OCCO3)CC1,> 100,> 250,> 100,> 100,
Oc1ccc(Cl)cc1Cc1cc(Cl)ccc1O [DICHLOROPHEN],> 100,66,17,24,> 250
CC1=CC(=O)c2ccccc2C1=O [MENADIONE],1,2.5,15,9,> 250
O=C(/C=C/c1ccccc1)c1ccc(O)cc1 [4'-HYDROXYCHALCONE],> 100,56,20,21,> 250
C=C1CC[C@H](O)C/C1=C/C=C1\CCC[C@]2(C)[C@@H]([C@H](C)/C=C/[C@H](C)C(C)C)CC[C@@H]12 [ERGOCALCIFEROL],,41,45,28,> 250
C[C@H](CCC(=O)O)[C@H]1CC[C@H]2[C@@H]3CC[C@@H]4C[C@H](O)CC[C@]4(C)[C@H]3CC[C@]12C [LITHOCHOLIC ACID],> 100,59,10,,> 250
CC1=CC(=O)c2c(O)cccc2C1=O [PLUMBAGIN],0.06,0.29,6.3,3.8,> 250
Oc1c(Cl)cc(Cl)c(Cl)c1Cc1c(O)c(Cl)cc(Cl)c1Cl [HEXACHLOROPHENE],51,4.7,1.3,1.4,153
Cc1cc(C(C#N)c2ccc(Cl)cc2)c(Cl)cc1NC(=O)c1cc(I)cc(I)c1O (centres undefined) [CLOSANTEL],> 100,2,2.8,,> 250
O=c1c(O)c(-c2ccc(O)c(O)c2)oc2c(O)c(O)cc(O)c12 [GOSSYPETIN],0.33,0.39,7.5,2.1,> 250
O=C1c2ccccc2C(=O)c2c(O)c(O)cc(O)c21 [PURPURIN],2.3,4,23,15,> 250
IVERMECTIN,> 100,,,,> 250
CC1(C)CCC2=C(O1)c1ccccc1C(=O)C2=O [LAPACHONE],0.12,0.59,2.1,1.3,> 250

Compound,IC50 [1] [µM],IC50 (E. coli GroEL/ES [2]) [µM],IC50 (HSP60/HSP10) [µM],IC50 (E. coli GroEL/ES [3]) [µM],IC50 (Chaperonin GroEL) [µM]
C=C(CC)C(=O)c1ccc(OCC(=O)O)c(Cl)c1Cl [ETHACRYNIC ACID],> 100,4.7,8.5,5.2,> 250
C=C1CC[C@H](O)C/C1=C/C=C1\CCC[C@]2(C)[C@@H]([C@H](C)CCCC(C)C)CC[C@@H]12 [CHOLECALCIFEROL],> 100,31,11,22,> 250
O=C(/C=C/c1ccc(O)cc1)c1ccccc1 [4-HYDROXYCHALCONE],> 100,40,22,21,> 250
O=C1C=C2CC3(O)COc4c(ccc(O)c4O)C3=C2C=C1O (centres undefined) [HEMATEIN],12,,3.6,1.8,> 250
COc1ccc(C(=O)/C=C/c2ccccc2)cc1 [4'-METHOXYCHALCONE],> 100,30,16,13,> 250
C=C(NC(=O)C(=C)NC(=O)c1csc(C2=N[C@@H]3c4csc(n4)[C@H]4NC(=O)c5csc(n5)[C@H]([C@](C)(O)[C@@H](C)O)NC(=O)[C@H]5CSC(=N5)/C(=C/C)NC(=O)[C@H]([C@@H](C)O)NC(=O)c5csc(n5)[C@]3(CC2)NC(=O)[C@H](C)NC(=O)C(=C)NC(=O)[C@H](C)NC(=O)[C@H]([C@@H](C)CC)N[C@@H]2C=Cc3c([C@H](C)O)cc(nc3[C@H]2O)C(=O)O[C@@H]4C)n1)C(N)=O [THIOSTREPTON],> 100,,13,6.8,> 250
CC(=O)O[C@H]1C(=O)[C@@]2(C)[C@H]([C@H](OC(=O)c3ccccc3)[C@]3(O)C[C@H](OC(=O)[C@H](O)[C@@H](NC(=O)c4ccccc4)c4ccccc4)C(C)=C1C3(C)C)[C@]1(OC(C)=O)CO[C@@H]1C[C@@H]2O [PACLITAXEL],,114,> 100,56,> 250
CC1=C(/C=C/C(C)=C/C=C/C(C)=C/C(=O)O)C(C)(C)CCC1 [TRETINOIN],,21,5.3,6.7,> 250
CC(C)(C)NCC(O)c1ccc(O)c(CO)c1 (centres undefined) [ALBUTEROL],> 100,> 250,> 100,> 100,
CCOc1nc2cccc(C(=O)O)c2n1Cc1ccc(-c2ccccc2-c2nnn[nH]2)cc1,> 100,> 250,> 100,> 100,
Cc1ccc(C(=O)Nc2ccc(S(=O)(=O)O)c3cc(S(=O)(=O)O)cc(S(=O)(=O)O)c23)cc1NC(=O)c1cccc(NC(=O)Nc2cccc(C(=O)Nc3cc(C(=O)Nc4ccc(S(=O)(=O)O)c5cc(S(=O)(=O)O)cc(S(=O)(=O)O)c45)ccc3C)c2)c1 [SURAMIN],> 100,,7.2,,> 250
COc1cc(-c2ccc(/N=N/c3ccc4c(S(=O)(=O)O)cc(S(=O)(=O)O)c(N)c4c3O)c(OC)c2)ccc1/N=N/c1ccc2c(S(=O)(=O)O)cc(S(=O)(=O)O)c(N)c2c1O,8.5,2,,3.9,
Cc1cc2nc3c(=O)[nH]c(=O)nc-3n(C[C@H](O)[C@H](O)[C@H](O)COP(=O)(O)O)c2cc1C [RIBOFLAVIN 5'-PHOSPHATE SODIUM],0.38,0.77,,85,> 250
Nc1ccc(O)c(C(=O)O)c1 [MESALAMINE],0.28,,,,
Cc1cc2nc3c(=O)[nH]c(=O)nc-3n(C[C@H](O)[C@H](O)[C@H](O)CO)c2cc1C [RIBOFLAVIN],,18,> 100,> 100,> 250
CC1=NCCc2c1[nH]c1cc(O)ccc21 [HARMALOL],,,> 100,> 100,> 250
COc1cc(NC(C)CCCN)c2ncccc2c1 (centres undefined) [PRIMAQUINE],2.9,,> 100,,

# Source: ChEMBL document CHEMBL4392822, “HSP60/10 chaperonin systems are inhibited by a variety of approved drugs, natural products, and known bioactive molecules” (Bioorg Med Chem Lett, 2019)
